Data as given in PubChem BioAssay (NCI).
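How tested: cells in 96-well plates exposed to compound for 48 hours at five concentrations. TGI marks complete inhibition of growth.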

What was measured:
Test in all cases: DTP human tumour cell line panel, 48 h
HOP-62 NSCLC = test system: HOP-62 NSCLC
BT-549 breast = test system: BT-549 breast
RPMI-8226 leukemia = test system: RPMI-8226 leukemia
HT29 colon = test system: HT29 colon
M14 melanoma = test system: M14 melanoma
HCT-15 colon = test system: HCT-15 colon
SK-MEL-2 melanoma = test system: SK-MEL-2 melanoma
MDA-N = test system: MDA-N
HCT-116 colon = test system: HCT-116 colon
LOX IMVI melanoma = test system: LOX IMVI melanoma
TK-10 renal = test system: TK-10 renal
MDA-MB-231 breast = test system: MDA-MB-231 breast
HS 578T breast = test system: HS 578T breast
SNB-75 CNS = test system: SNB-75 CNS
SK-MEL-5 melanoma = test system: SK-MEL-5 melanoma
SF-268 CNS = test system: SF-268 CNS
NCI-H522 lung = test system: NCI-H522 lung
K-562 leukemia = test system: K-562 leukemia
SK-MEL-28 melanoma = test system: SK-MEL-28 melanoma
SK-OV-3 ovarian = test system: SK-OV-3 ovarian
EKVX NSCLC = test system: EKVX NSCLC
T-47D breast = test system: T-47D breast
SN12C renal = test system: SN12C renal
KM12 colon = test system: KM12 colon
CCRF-CEM leukemia = test system: CCRF-CEM leukemia
HCC-2998 colon = test system: HCC-2998 colon
UACC-62 melanoma = test system: UACC-62 melanoma
OVCAR-5 ovarian = test system: OVCAR-5 ovarian
A498 renal = test system: A498 renal
NCI/ADR-RES ovarian = test system: NCI/ADR-RES ovarian
CAKI-1 renal = test system: CAKI-1 renal
DU-145 prostate = test system: DU-145 prostate
HOP-92 NSCLC = test system: HOP-92 NSCLC
UO-31 renal = test system: UO-31 renal
A549 NSCLC = test system: A549 NSCLC
NCI-H23 lung = test system: NCI-H23 lung
OVCAR-3 ovarian = test system: OVCAR-3 ovarian
IGROV1 ovarian = test system: IGROV1 ovarian
MALME-3M melanoma = test system: MALME-3M melanoma
OVCAR-4 ovarian = test system: OVCAR-4 ovarian
COLO 205 colon = test system: COLO 205 colon
RXF 393 renal = test system: RXF 393 renal
UACC-257 melanoma = test system: UACC-257 melanoma
MCF7 breast = test system: MCF7 breast
HL-60(TB) leukemia = test system: HL-60(TB) leukemia
SNB-19 CNS = test system: SNB-19 CNS
ACHN renal = test system: ACHN renal
MDA-MB-435 = test system: MDA-MB-435
PC-3 prostate = test system: PC-3 prostate
U251 CNS = test system: U251 CNS
SF-295 CNS = test system: SF-295 CNS
MOLT-4 leukemia = test system: MOLT-4 leukemia
SW-620 colon = test system: SW-620 colon
OVCAR-8 ovarian = test system: OVCAR-8 ovarian
786-0 renal = test system: 786-0 renal
NCI-H460 lung = test system: NCI-H460 lung
SF-539 CNS = test system: SF-539 CNS
NCI-H226 lung = test system: NCI-H226 lung

With `COc1cc(/C=C2\N=C(c3ccccc3)N(c3nc4ccc(Sc5ccccc5)cc4[nH]3)C2=O)ccc1O` the TGI (HOP-62 NSCLC) was > 100 µM, the TGI (BT-549 breast) was 53.7 µM and the TGI (RPMI-8226 leukemia) was 47.8 µM. For the same molecule, the TGI (HT29 colon) was 38.7 µM, the TGI (M14 melanoma) was 33.6 µM and the TGI (HCT-15 colon) was > 100 µM. For the same molecule, the TGI (SK-MEL-2 melanoma) was 30.6 µM, the TGI (MDA-N) was 28.5 µM and the TGI (HCT-116 colon) was 47.3 µM. The TGI (LOX IMVI melanoma) was > 100 µM, the TGI (TK-10 renal) was 53.5 µM and the TGI (MDA-MB-231 breast) was 60.4 µM. The TGI (HS 578T breast) was > 100 µM, the TGI (SNB-75 CNS) was > 100 µM and the TGI (SK-MEL-5 melanoma) was 28.1 µM. For the same molecule, the TGI (SF-268 CNS) was > 100 µM, the TGI (NCI-H522 lung) was 48.3 µM and the TGI (K-562 leukemia) was 37.3 µM. For the same molecule, the TGI (SK-MEL-28 melanoma) was 75.3 µM, the TGI (SK-OV-3 ovarian) was > 100 µM and the TGI (EKVX NSCLC) was > 100 µM. The TGI (T-47D breast) was > 100 µM, the TGI (SN12C renal) was 97.5 µM and the TGI (KM12 colon) was 57.9 µM. It also gave a TGI (CCRF-CEM leukemia) of 55.3 µM, a TGI (HCC-2998 colon) of 29.3 µM and a TGI (UACC-62 melanoma) of 53.3 µM. The TGI (OVCAR-5 ovarian) was > 100 µM, the TGI (A498 renal) was 77.1 µM and the TGI (NCI/ADR-RES ovarian) was 61 µM. The TGI (CAKI-1 renal) was > 100 µM, the TGI (DU-145 prostate) was > 100 µM and the TGI (HOP-92 NSCLC) was > 100 µM. For the same molecule, the TGI (UO-31 renal) was > 100 µM, the TGI (A549 NSCLC) was > 100 µM and the TGI (NCI-H23 lung) was > 100 µM. For the same molecule, the TGI (OVCAR-3 ovarian) was > 100 µM, the TGI (IGROV1 ovarian) was > 100 µM and the TGI (MALME-3M melanoma) was 44.1 µM. For the same molecule, the TGI (OVCAR-4 ovarian) was > 100 µM, the TGI (COLO 205 colon) was 32.7 µM and the TGI (RXF 393 renal) was > 100 µM. The TGI (UACC-257 melanoma) was 47.1 µM, the TGI (MCF7 breast) was 50.7 µM and the TGI (HL-60(TB) leukemia) was 31.2 µM. The TGI (SNB-19 CNS) was > 100 µM, the TGI (ACHN renal) was 86 µM and the TGI (MDA-MB-435) was 23.2 µM. For the same molecule, the TGI (PC-3 prostate) was > 100 µM, the TGI (U251 CNS) was 43.7 µM and the TGI (SF-295 CNS) was 94.7 µM. The TGI (MOLT-4 leukemia) was 69.4 µM, the TGI (SW-620 colon) was > 100 µM and the TGI (OVCAR-8 ovarian) was > 100 µM. It also gave a TGI (786-0 renal) of 49 µM and a TGI (NCI-H460 lung) of 50 µM.

`CC1=NN(C(=O)CC(=O)N(C(=O)c2ccccc2)c2ccc(Cl)cc2)C(=O)C1N=Nc1ccc([N+](=O)[O-])cc1` (stereo not drawn) was tested, and the TGI (HOP-62 NSCLC) was > 10 µM, the TGI (BT-549 breast) was > 10 µM and the TGI (RPMI-8226 leukemia) was > 10 µM. The TGI (HT29 colon) was > 10 µM, the TGI (HCT-15 colon) was > 10 µM and the TGI (SK-MEL-2 melanoma) was > 10 µM. For the same molecule, the TGI (MDA-N) was > 10 µM, the TGI (HCT-116 colon) was > 10 µM and the TGI (LOX IMVI melanoma) was > 10 µM. The TGI (TK-10 renal) was > 10 µM, the TGI (MDA-MB-231 breast) was > 10 µM and the TGI (HS 578T breast) was > 10 µM. The TGI (SNB-75 CNS) was > 10 µM, the TGI (SK-MEL-5 melanoma) was > 10 µM and the TGI (SF-268 CNS) was > 10 µM. The TGI (NCI-H522 lung) was > 10 µM, the TGI (K-562 leukemia) was > 10 µM and the TGI (SF-539 CNS) was > 10 µM. The TGI (SK-MEL-28 melanoma) was > 10 µM, the TGI (SK-OV-3 ovarian) was > 10 µM and the TGI (EKVX NSCLC) was > 10 µM. The TGI (T-47D breast) was > 10 µM, the TGI (SN12C renal) was > 10 µM and the TGI (KM12 colon) was > 10 µM. The TGI (CCRF-CEM leukemia) was > 10 µM, the TGI (HCC-2998 colon) was > 10 µM and the TGI (UACC-62 melanoma) was > 10 µM. The TGI (OVCAR-5 ovarian) was > 10 µM, the TGI (A498 renal) was > 10 µM and the TGI (NCI/ADR-RES ovarian) was > 10 µM. For the same molecule, the TGI (CAKI-1 renal) was > 10 µM, the TGI (DU-145 prostate) was > 10 µM and the TGI (HOP-92 NSCLC) was > 10 µM. For the same molecule, the TGI (UO-31 renal) was > 10 µM, the TGI (A549 NSCLC) was > 10 µM and the TGI (NCI-H23 lung) was > 10 µM. For the same molecule, the TGI (OVCAR-3 ovarian) was > 10 µM, the TGI (IGROV1 ovarian) was > 10 µM and the TGI (MALME-3M melanoma) was > 10 µM. The TGI (OVCAR-4 ovarian) was > 10 µM, the TGI (COLO 205 colon) was > 10 µM and the TGI (RXF 393 renal) was > 10 µM. For the same molecule, the TGI (UACC-257 melanoma) was > 10 µM, the TGI (MCF7 breast) was > 10 µM and the TGI (HL-60(TB) leukemia) was > 10 µM. The TGI (SNB-19 CNS) was > 10 µM, the TGI (ACHN renal) was > 10 µM and the TGI (MDA-MB-435) was > 10 µM. For the same molecule, the TGI (PC-3 prostate) was > 10 µM, the TGI (U251 CNS) was > 10 µM and the TGI (SF-295 CNS) was > 10 µM. The TGI (MOLT-4 leukemia) was > 10 µM, the TGI (SW-620 colon) was > 10 µM and the TGI (NCI-H226 lung) was > 10 µM. The TGI (OVCAR-8 ovarian) was > 10 µM, the TGI (786-0 renal) was > 10 µM and the TGI (NCI-H460 lung) was > 10 µM.
